Experimental data from patent publication US6136831A, “Pyrazole derivatives and COX inhibitors containing them” (Grelan Pharmaceutical Co., Ltd., priority 1997, dated 2000).
Blank lines part the entries; values can stand above or below the compound they belong to.

Experiments:
[1] = system: rat adjuvant-induced arthritis; experiment: Inhibitory Action on Adjuvant Arthritis (1) (Assay Example 2); format: in vivo, male Fisher rats; conditions: oral 5 mg/kg; for % Inhibition against Change in Relative Weight, Spleen / % Inhibition against Change in Relative Weight, Thymus: 7 times, relative weight per 100 g body weight, day 21; for % Inhibition against Reduction of Gain in Body Weight / Edema Inhibition (%) Left Hind Paw (Non-inflamed Paw) / Edema Inhibition (%) Right Hind Paw (Inflamed Paw) / Inflammation Score Inhibition (%): days 0, 3, 7, 10, 14, 17, 20; for % Inhibition against Reduction of Gain in Body Weight / Edema Inhibition (%) Left Hind Paw (Non-inflamed Paw) / Edema Inhibition (%) Right Hind Paw (Inflamed Paw): measured day 21; for Inflammation Score Inhibition (%): scored day 21
Procedure: Dry Mycobacterium butyricum killed organisms (Difco) were suspended in liquid paraffin to make the concentration 1% and the resulting suspension used as an adjuvant. The adjuvant (50 μl) was subplantarly injected to the right hind paw of male Fisher rats (5 to 6 animals per group) to raise arthritis. Each test compound was suspended in a 0.5% aqueous sodium carboxymethylcellulose (CMC-Na) solution and orally administered to the rats at a dose of 5 mg/kg on days 0, 3, 7, 10, 14, 17 and 20 (7 times in total) after the arthritis induction. On the 21st disease day the rats were measured for their body weight and the edema of their right and left hind paws. Simultaneously, systemic inflammatory states were scored. In addition, each of their spleen and thymus was taken out by excision to measure their wet weight and their relative weight per 100 g body weight was calculated.

[2] = system: acetic acid writhing in male ddY mice; experiment: Analgesic Action in Acetic Acid Writhing (Assay Example 3); format: in vivo
Procedure: A 0.7% acetic acid solution was intraperitoneally administered to male ddY mice at a dose of 10 ml/kg body weight. The frequency of writhing manifested was counted as an index of pains for a period of 10 minutes starting from the 10th minute after the administration. Ten or thirty minutes prior to the acetic acid administration, each test compound was orally given.

[3] = target: T1, COX-1 (Ovis aries, UniProt P05979); experiment: Inhibitory Activity on COX-1 (Assay Example 1); format: biochemical; conditions: Table 1; read-out: COX Inhibiting Activity IC50, COX-1
T1 construct: purchased Cayman Chemical Co
T1 sequence (P05979 25-600): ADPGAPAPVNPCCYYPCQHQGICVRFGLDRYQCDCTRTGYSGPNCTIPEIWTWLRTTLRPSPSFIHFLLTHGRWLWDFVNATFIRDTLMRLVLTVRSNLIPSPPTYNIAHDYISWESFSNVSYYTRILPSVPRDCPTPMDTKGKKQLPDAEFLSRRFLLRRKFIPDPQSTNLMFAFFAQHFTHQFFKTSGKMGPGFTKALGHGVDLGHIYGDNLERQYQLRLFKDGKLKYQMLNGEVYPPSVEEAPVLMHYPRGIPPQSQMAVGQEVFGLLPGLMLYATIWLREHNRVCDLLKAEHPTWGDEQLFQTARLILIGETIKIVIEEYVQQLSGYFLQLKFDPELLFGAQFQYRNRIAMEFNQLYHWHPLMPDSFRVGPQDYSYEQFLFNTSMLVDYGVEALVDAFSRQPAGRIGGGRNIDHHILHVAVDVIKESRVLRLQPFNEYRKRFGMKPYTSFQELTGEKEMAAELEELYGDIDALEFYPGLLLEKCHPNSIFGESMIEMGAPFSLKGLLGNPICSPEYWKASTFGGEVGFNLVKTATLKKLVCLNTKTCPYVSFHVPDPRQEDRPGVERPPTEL

[4] = target: T2, COX-2 (Ovis aries, UniProt P79208); experiment: Inhibitory Activity on COX-2 (Assay Example 1); format: biochemical; conditions: Table 1; for IC50: read-out: COX Inhibiting Activity IC50, COX-2
T2 construct: purchased Cayman Chemical Co
T2 sequence (P79208 17-603): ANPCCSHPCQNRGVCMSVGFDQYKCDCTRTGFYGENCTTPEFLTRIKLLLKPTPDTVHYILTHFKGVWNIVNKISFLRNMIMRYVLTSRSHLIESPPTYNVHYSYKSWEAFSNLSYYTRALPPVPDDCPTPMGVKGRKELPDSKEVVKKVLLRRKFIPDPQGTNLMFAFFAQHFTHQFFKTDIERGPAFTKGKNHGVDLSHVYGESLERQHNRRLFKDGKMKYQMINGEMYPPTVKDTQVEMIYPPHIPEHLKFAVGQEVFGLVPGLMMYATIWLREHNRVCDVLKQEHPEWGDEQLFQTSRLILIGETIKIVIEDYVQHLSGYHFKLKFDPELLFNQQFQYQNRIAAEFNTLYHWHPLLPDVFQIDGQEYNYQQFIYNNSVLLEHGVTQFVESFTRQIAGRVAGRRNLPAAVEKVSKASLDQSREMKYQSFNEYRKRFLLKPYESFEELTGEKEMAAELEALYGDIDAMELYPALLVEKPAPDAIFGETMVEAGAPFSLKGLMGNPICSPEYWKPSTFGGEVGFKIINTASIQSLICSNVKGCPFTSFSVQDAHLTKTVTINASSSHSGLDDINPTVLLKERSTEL

[5] = system: Arthus reaction (III-type allergy); experiment: Inhibitory Action on Arthus Reaction (Assay Example 7); conditions: for increase in edematized left hind paw volume / edema inhibition: one hour prior to ovalbumin; for increase in edematized left hind paw volume: 2 hours, control (0.74±0.06) ml; for edema inhibition: significant, not more than 1% error level
Procedure: Rat anti-ovalbumin serum was prepared by the method given below. One mg of ovalbumin was dissolved in 1 ml of physiological saline and divided to two aliquots. The ovalbumin solution was intramuscularly administered to the femoral portion of male SD rats. Simultaneously, 0.5 ml of 0.05% Mycobacterium butyricum suspension as a Freund's complete adjuvant was intraperitoneally administered to the rats. Three days later, the same treatments were repeated. On the 12th day after the initial sensitization,antisera were collected.
Two hours later, the left hind paw volume was measured using a plethysmometer and the increases in paw volume were determined by comparing with those prior to the Arthus reaction induction. […] Each compound was suspended in a 0.5% aqueous CMC-Na solution and orally administered one hour prior to the ovalbumin administration. Control groups received only a 0.5% aqueous CMC-Na solution. The test of significance was conducted by Dunnett's multiple range test.

[6] = system: oxazolone-induced dermal delayed type hypersensitivity (IV-type allergy); experiment: Inhibitory Action on Oxazolone-Induced Dermal Delayed Type Hypersensitivity (Assay Example 8); format: in vivo, mice; conditions: for edema inhibition / increase in edematized auricle thickness: 4 days, 24 hours after challenge; for increase in edematized auricle thickness: control (0.12±0.03) mm
Procedure: Sensitization was conducted by topically applying 150 μl of 1% oxazolone solution (ethanol:acetone=3:1) to mice (5 to 6 animals per group), the abdominal and pectral regions of which were shaved in advance. Four days after the sensitization, 10 μl of 0.8% oxazolone solution (in olive oil) was topically applied to the […] left auricle to raise the response. Twenty-four hours later the auricular thickness was measured using a dial-gauge (Mitsutoyo Co.). Values obtained by subtracting auricular thickness data prior to the challenge were taken as indexes of the response. […] One hour after the final administration, the challenge was conducted.

[7] = system: adjuvant arthritis in rats; experiment: Inhibitory Action on Adjuvant Arthritis (2) (Assay Example 6); format: in vivo, male F344/Du (Fisher) rats; conditions: oral 1 mg/5 ml/kg daily, 17 days
Procedure: A 1% dry Mycobacterium tuberculosis H37 RA killed organism suspension in liquid paraffin was employed as an adjuvant. The adjuvant suspension (50 μl) was subplantarly administered to the right hind paw of male F344/Du (Fisher) rats (5 to 6 animals per group) to raise arthritis. […] The next day after the final administration, the rats were measured for their body weight and the edema of their right and left hind paws. Simultaneously, systemic inflammatory states were scored. In addition, each of their spleen and thymus was taken out by excision to measure their wet weight and their relative weight per 100 g body weight was determined.

IC50 [3]: > 100 µM
COX-1/COX-2 (ratio of IC50 values) [4]: > 263
IC50 [4]: 0.38 µM
SMILES: CS(=O)(=O)c1ccc(-n2nc(C(F)(F)F)cc2-c2nc3ccc(F)cc3s2)cc1 [Example 2, 6-Fluoro-2-[1-(4-methylsulfonylphenyl)-3-trifluoromethyl-1H-pyrazol-5-yl]benzothiazole]
% Inhibition against Change in Relative Weight, Spleen [1]: 2.5%
% Inhibition against Change in Relative Weight, Thymus [1]: 56.7%
% Inhibition against Reduction of Gain in Body Weight [1]: 75.9%
Edema Inhibition (%) Left Hind Paw (Non-inflamed Paw) [1]: 91%
Edema Inhibition (%) Right Hind Paw (Inflamed Paw) [1]: 94%
Inflammation Score Inhibition (%) [1]: 97%
% Inhibition of Writhing Response ([2]; 10 mg/kg oral, Administration Point 1: 10 minutes prior to acetic acid): 49%
% Inhibition of Writhing Response ([2]; 10 mg/kg oral, Administration Point 2: 30 minutes prior to acetic acid): 57%

IC50 [3]: > 100 µM
COX-1/COX-2 (ratio of IC50 values) [4]: > 23.3
IC50 [4]: 4.3 µM
SMILES: CS(=O)(=O)c1ccc(-n2nc(C(F)(F)F)cc2-c2nc3c(F)cccc3s2)cc1 [Example 6, 4-Fluoro-2-[1-(4-methylsulfonylphenyl)-3-trifluoromethyl-1H-pyrazol-5-yl]benzothiazole]
increase in edematized left hind paw volume ([5]; 50 mg/kg oral): 0.54 ± 0.04 mL
edema inhibition ([5]; 50 mg/kg oral): 27%
action on Arthus reaction, in words ([5]; index test for immunoregulating activity, III-type allergy): controlling actions
% Inhibition against Change in Relative Weight, Spleen [1]: 42.6%
% Inhibition against Change in Relative Weight, Thymus [1]: 130.3%
% Inhibition against Reduction of Gain in Body Weight [1]: 104.6%
Edema Inhibition (%) Left Hind Paw (Non-inflamed Paw) [1]: 105%
Edema Inhibition (%) Right Hind Paw (Inflamed Paw) [1]: 84%
Inflammation Score Inhibition (%) [1]: 97%
edema inhibition ([6]; 30 mg/kg oral daily): 48%
increase in edematized auricle thickness ([6]; 30 mg/kg oral daily): 0.06±0.01 mm
action on oxazolone-induced delayed type hypersensitivity, in words ([6]; index test for immunoregulating activity, IV-type allergy): controlling actions

IC50 [3]: 47 µM
COX-1/COX-2 (ratio of IC50 values) [4]: 142
IC50 [4]: 0.33 µM
SMILES: NS(=O)(=O)c1ccc(-n2nc(C(F)(F)F)cc2-c2nc3ccc(F)cc3s2)cc1 [Example 13, 4-[5-(6-Fluorobenzothiazol-2-yl)-3-trifluoromethyl-1H-pyrazol-1-yl]benzenesulfonamide]
% Inhibition against Change in Relative Weight, Spleen [1]: -10.5%
% Inhibition against Change in Relative Weight, Thymus [1]: 71.3%
% Inhibition against Reduction of Gain in Body Weight [1]: 48.6%
Edema Inhibition (%) Left Hind Paw (Non-inflamed Paw) [1]: 76%
Edema Inhibition (%) Right Hind Paw (Inflamed Paw) [1]: 71%
Inflammation Score Inhibition (%) [1]: 78%

SMILES: COc1ccc2c(c1)c(CC(=O)O)c(C)n2C(=O)c1ccc(Cl)cc1 [Indomethacin, reference compound]
% Inhibition against Reduction of Gain in Body Weight [1]: 19.8%
Edema Inhibition (%) Left Hind Paw (Non-inflamed Paw) [1]: 75%
Edema Inhibition (%) Right Hind Paw (Inflamed Paw) [1]: 43%
Inflammation Score Inhibition (%) [1]: 51%
% Inhibition of Writhing Response ([2]; po, 3 mg/kg): 28%

SMILES: CS(=O)(=O)c1ccc(-n2nc(C(F)(F)F)cc2-c2ccc(F)cc2)cc1 [SC-58125, 5-(4-fluorophenyl)-1-(4-methylsulfonylphenyl)-3-trifluoromethyl-1H-pyrazole, reference compound]
% Inhibition against Reduction of Gain in Body Weight [1]: 96.9%
Edema Inhibition (%) Left Hind Paw (Non-inflamed Paw) [1]: 95%
Edema Inhibition (%) Right Hind Paw (Inflamed Paw) [1]: 76%
Inflammation Score Inhibition (%) [1]: 96%
% Inhibition of Writhing Response ([2]; 30 mg/kg oral, Administration Point 1: 10 minutes prior to acetic acid): 22%

SMILES: Cc1ccc(-c2cc(C(F)(F)F)nn2-c2ccc(S(N)(=O)=O)cc2)cc1 [YM-177, 4-[5-(4-methylphenyl)-3-trifluoromethyl-1H-pyrazol-1-yl]benzenesulfonamide, reference compound]
% Inhibition against Reduction of Gain in Body Weight [1]: 25.5%
Edema Inhibition (%) Left Hind Paw (Non-inflamed Paw) [1]: 65%
Edema Inhibition (%) Right Hind Paw (Inflamed Paw) [1]: 37%
Inflammation Score Inhibition (%) [1]: 44%
% Inhibition of Writhing Response ([2]; po, 30 mg/kg): 17%
% Inhibition against Reduction of Gain in Body Weight ([7]; measured next day): 21%
Edema Inhibition (%) Left Hind Paw (Non-inflamed Paw) ([7]; measured next day): 60%
Edema Inhibition (%) Right Hind Paw (Inflamed Paw) ([7]; measured next day): 41%
Inflammation Score Inhibition (%) ([7]; scored next day): 49%

SMILES: C[C@]12C=CC(=O)C=C1CC[C@@H]1[C@@H]2[C@@H](O)C[C@@]2(C)[C@H]1CC[C@]2(O)C(=O)CO [prednisolone, reference compound]
increase in edematized left hind paw volume ([5]; 10 mg/kg oral): 0.51 ± 0.02 mL
edema inhibition ([5]; 10 mg/kg oral): 31%
edema inhibition ([6]; 10 mg/kg oral daily): 70%
increase in edematized auricle thickness ([6]; 10 mg/kg oral daily): 0.04±0.01 mm
